Several values for one entry are separate records, joined by “and”; a condition that tells them apart may be missing. Equal values may be shown once.
Test: molar heat capacity at constant pressure
Conditions: 101.33 kPa, Crystal 1, Small sample (50 mg) DSC

O=P([O-])([O-])[O-].[Cs+].[Mn+2] [cesium manganese(II) phosphate]
Conditions	molar heat capacity at constant pressure
427.5 K	167.95 J/K/mol
430 K	167.95 J/K/mol
432.5 K	167.95 J/K/mol
435 K	168.78 J/K/mol
437.5 K	168.78 J/K/mol
440 K	169.62 J/K/mol and 168.78 J/K/mol
442.5 K	169.62 J/K/mol
445 K	169.62 J/K/mol
447.5 K	169.62 J/K/mol
450 K	170.45 J/K/mol
452.5 K	170.45 J/K/mol
455 K	170.45 J/K/mol
457.5 K	170.45 J/K/mol
460 K	171.28 J/K/mol
462.5 K	171.28 J/K/mol
465 K	171.28 J/K/mol
467.5 K	171.28 J/K/mol
469.9 K	172.11 J/K/mol
470 K	172.11 J/K/mol
472.5 K	172.11 J/K/mol
475 K	172.11 J/K/mol
477.5 K	172.11 J/K/mol
480 K	172.94 J/K/mol
482.5 K	172.94 J/K/mol
485 K	172.94 J/K/mol
487.5 K	172.94 J/K/mol
490 K	173.77 J/K/mol
492.5 K	173.77 J/K/mol
495 K	173.77 J/K/mol
497.5 K	174.6 J/K/mol
500 K	174.6 J/K/mol
502.5 K	174.6 J/K/mol
505.3 K	174.6 J/K/mol
507.5 K	175.44 J/K/mol
510 K	175.44 J/K/mol
512.5 K	175.44 J/K/mol
515 K	175.44 J/K/mol
517.5 K	176.27 J/K/mol
520 K	176.27 J/K/mol
522.5 K	176.27 J/K/mol
525 K	176.27 J/K/mol
527.5 K	177.1 J/K/mol
530 K	177.1 J/K/mol
532.5 K	177.1 J/K/mol
535 K	177.1 J/K/mol
537.5 K	177.93 J/K/mol
540 K	177.93 J/K/mol
542.5 K	177.93 J/K/mol
545 K	177.93 J/K/mol
547.5 K	178.76 J/K/mol
550 K	178.76 J/K/mol
552.5 K	178.76 J/K/mol
555 K	178.76 J/K/mol
557.5 K	179.59 J/K/mol
560 K	179.59 J/K/mol
562.5 K	179.59 J/K/mol
565 K	179.59 J/K/mol
567.5 K	180.42 J/K/mol
570 K	180.42 J/K/mol
572.5 K	180.42 J/K/mol
575 K	180.42 J/K/mol
577.5 K	181.26 J/K/mol
580 K	181.26 J/K/mol
582.5 K	181.26 J/K/mol
585 K	181.26 J/K/mol
587.5 K	182.09 J/K/mol
590 K	182.09 J/K/mol
592.5 K	182.09 J/K/mol
595 K	182.09 J/K/mol
597.5 K	182.92 J/K/mol
600 K	182.92 J/K/mol
602.5 K	182.92 J/K/mol
605 K	183.75 J/K/mol
607.5 K	183.75 J/K/mol
610 K	183.75 J/K/mol
612.5 K	183.75 J/K/mol
615 K	184.58 J/K/mol
617.5 K	184.58 J/K/mol
620 K	184.58 J/K/mol
622.4 K	184.58 J/K/mol
625 K	185.41 J/K/mol
627.5 K	185.41 J/K/mol
630 K	185.41 J/K/mol
632.5 K	186.24 J/K/mol
635 K	186.24 J/K/mol
637.5 K	186.24 J/K/mol
640 K	186.24 J/K/mol
642.5 K	186.24 J/K/mol
645.1 K	187.08 J/K/mol
647.5 K	187.08 J/K/mol
650 K	187.08 J/K/mol

— the NIST ThermoML archive (doi:10.1016/j.jct.2014.06.012)
